# Assay results taken from article PMC7541396 (Nature biotechnology, 2020).
# B1: PPE26: Mtb PPE protein, cell-free expressed (protein, UniProt Q79FK6 1-393, looked up)
# PPE family protein PPE26: MDFGALPPEVNSVRMYAGPGSAPMVAAASAWNGLAAELSSAATGYETVITQLSSEGWLGPASAAMAEAVAPYVAWMSAAAAQAEQAATQARAAAAAFEAAFAATVPPPLIAANRASLMQLISTNVFGQNTSAIAAAEAQYGEMWAQDSAAMYAYAGSSASASAVTPFSTPPQIANPTAQGTQAAAVATAAGTAQSTLTEMITGLPNALQSLTSPLLQSSNGPLSWLWQILFGTPNFPTSISALLTDLQPYASFFYNTEGLPYFSIGMGNNFIQSAKTLGLIGSAAPAAVAAAGDAAKGLPGLGGMLGGGPVAAGLGNAASVGKLSVPPVWSGPLPGSVTPGAAPLPVSTVSAAPEAAPGSLLGGLPLAGAGGAGAGPRYGFRPTVMARPPFAG
# Assays:
# TCR004 = format: cell-based, human; conditions: Supplementary Fig. 4b, n=3
# TCR121 = experiment: Mtb proteome screen and PPE protein stimulation with aAPC, TCR121; format: cell-based, human
Molecule,response of TCR004 to cell-free expressed protein (TCR004),stimulation of TCR121 by whole PPE protein (TCR121)
"CFP10: Mtb protein, cell-free expressed; TCR004 target",only responded to its target antigen CFP10,
B1,,strong to modest stimulation
